Data on 25 compounds can be found in ChEMBL document CHEMBL4145484 (Eur J Med Chem, 2018).

The target of test [1] is T1, Amine oxidase [flavin-containing] A (Homo sapiens, UniProt P21397).
T1 sequence (P21397 whole entry): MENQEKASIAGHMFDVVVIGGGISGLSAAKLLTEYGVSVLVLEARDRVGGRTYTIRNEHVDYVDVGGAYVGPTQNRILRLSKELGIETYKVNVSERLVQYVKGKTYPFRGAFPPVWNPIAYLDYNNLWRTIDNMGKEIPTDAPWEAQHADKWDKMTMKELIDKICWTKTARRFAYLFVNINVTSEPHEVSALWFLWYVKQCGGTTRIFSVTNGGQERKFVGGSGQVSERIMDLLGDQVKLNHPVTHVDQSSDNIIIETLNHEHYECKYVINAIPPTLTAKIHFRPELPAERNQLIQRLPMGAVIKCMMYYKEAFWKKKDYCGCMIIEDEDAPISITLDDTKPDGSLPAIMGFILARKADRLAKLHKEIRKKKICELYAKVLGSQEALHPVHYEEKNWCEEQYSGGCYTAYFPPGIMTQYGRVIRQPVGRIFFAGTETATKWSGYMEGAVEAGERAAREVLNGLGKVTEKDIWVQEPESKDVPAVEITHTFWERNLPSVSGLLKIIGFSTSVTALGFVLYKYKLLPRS
As to the kind of experiment: Inhibition of recombinant human MAO-A using p-tyramine as substrate preincubated for 15 mins followed by substrate addition measured over 15 mins by Amplex red reagent-based fluorimetric method.

Test [2] concerns the target T2, Amine oxidase [flavin-containing] B (Homo sapiens, UniProt P27338).
T2 sequence (P27338 whole entry): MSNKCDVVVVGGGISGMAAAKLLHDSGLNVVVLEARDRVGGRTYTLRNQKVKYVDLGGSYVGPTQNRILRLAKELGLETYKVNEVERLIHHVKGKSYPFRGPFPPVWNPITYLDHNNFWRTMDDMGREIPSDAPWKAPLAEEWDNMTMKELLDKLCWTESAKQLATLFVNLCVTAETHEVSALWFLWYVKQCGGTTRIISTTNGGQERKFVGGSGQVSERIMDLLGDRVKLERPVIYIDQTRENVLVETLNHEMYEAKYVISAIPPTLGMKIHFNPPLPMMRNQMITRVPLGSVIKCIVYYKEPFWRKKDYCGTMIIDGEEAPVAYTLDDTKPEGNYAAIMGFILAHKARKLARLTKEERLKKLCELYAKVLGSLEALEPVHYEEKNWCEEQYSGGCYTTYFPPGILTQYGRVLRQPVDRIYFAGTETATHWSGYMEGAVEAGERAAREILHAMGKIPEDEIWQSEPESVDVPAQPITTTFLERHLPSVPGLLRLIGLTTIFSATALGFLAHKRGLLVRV
The experiment in a line: Inhibition of recombinant human MAO-B using p-tyramine as substrate preincubated for 15 mins followed by substrate addition measured over 15 mins by Amplex red reagent-based fluorimetric method.

The species entered for a further test is Homo sapiens. As to the kind of experiment: Selectivity index, ratio of IC50 for recombinant human MAO-A to IC50 for recombinant human MAO-B.

Bounds are passed on as bounds.

As usually defined, the IC50 is the concentration at which inhibition is half-maximal. As to `C#CCNC1CCc2c(OCc3cccc(Br)c3)cccc21` (centres undefined), the IC50 amounted to 9.55 µM in test [1] and 0.65 µM in test [2]. Also, the Ratio IC50 in the test filed under Homo sapiens came to 14.7.
Turning to `C#CCNC1CCc2c(OCCCOc3cc(C)c(Cl)c(C)c3)cccc21` (centres undefined), the IC50 is more than 60 µM in test [1] and 6.91 µM in test [2]. The Ratio IC50 in the test filed under Homo sapiens is more than 8.68.
Take `C#CCNC1CCc2c(OCCc3cccc(Cl)c3)cccc21` (centres undefined): the IC50 in test [1] is more than 60 µM; in test [2] it was 5.87 µM. Moreover, in the test filed under Homo sapiens, the Ratio IC50 was more than 10.2.
The like results for `C#CCNC1CCc2c(OCCOc3cccc4ccccc34)cccc21` (centres undefined) were, in that order, more than 60 µM, 3.39 µM and more than 17.7.
The like results for `C#CCNC1CCc2c(OCc3ccc4ccccc4c3)cccc21` (centres undefined) were, in that order, more than 60 µM, 6.21 µM and more than 9.66.
With `C#CCNC1CCc2c(OCc3ccc(C(F)(F)F)cc3)cccc21` (centres undefined), the values for the IC50 in test [1] and in test [2] were more than 60 µM and 1.39 µM, respectively. Further, the Ratio IC50 in the test filed under Homo sapiens was more than 43.7.
Take `C#CCNC1CCc2c(OCCCOc3ccc(C(C)C)cc3)cccc21` (centres undefined): the values for the IC50 in test [1] and in test [2] were 42.7 µM and 5.38 µM, respectively. In addition, the Ratio IC50 in the test filed under Homo sapiens was 7.93.
The like results for `C#CCNC1CCc2c(OCCOc3cccc(NC(C)=O)c3)cccc21` (centres undefined) were, in that order, 8.3 µM, 5.52 µM and 1.5.
The like results for `C#CCNC1CCc2c(OCCOc3ccccc3)cccc21` (centres undefined) were, in that order, 14.1 µM, 4.57 µM and 3.08.
The like results for `C#CCNC1CCc2c(OCc3ccc(F)c(F)c3)cccc21` (centres undefined) were, in that order, 7.22 µM, 1.41 µM and 5.12.
Regarding `C#CCNC1CCc2c(OCCc3ccccc3)cccc21` (centres undefined), the IC50 in test [1] is 9.1 µM; in test [2], 3.87 µM. Moreover, the Ratio IC50 in the test filed under Homo sapiens stood at 2.35.
Regarding `C#CCNC1CCc2c(OCc3ccccc3)cccc21` (centres undefined), the IC50 was 15.4 µM in test [1] and 1.97 µM in test [2]. In addition, the Ratio IC50 in the test listed under Homo sapiens came out at 7.84.
For `C#CCNC1CCc2c(OCCCOc3cccc4ccccc34)cccc21` (centres undefined), the IC50 in test [1] and in test [2] was more than 60 µM in each case.
For the compound `C#CCNC1CCc2c(OCc3ccc(F)cc3)cccc21` (centres undefined), the IC50 in test [1] was found to be 7.8 µM; in test [2], 1.87 µM. The Ratio IC50 in the test filed under Homo sapiens came out at 4.17.
Take `C#CCNC1CCc2c(OCCCOc3ccccc3)cccc21` (centres undefined): the IC50 in test [1] was more than 60 µM; in test [2] it was 10.2 µM. For the same compound, the Ratio IC50 in the test listed under Homo sapiens is more than 5.87.
The like results for `C#CCNC1CCc2c(OCc3ccc(C)cc3)cccc21` (centres undefined) were, in that order, 4.33 µM, 1.09 µM and 3.97.
The like results for `C#CCNC1CCc2c(OCCOc3cccc(NC(=O)CCl)c3)cccc21` (centres undefined) were, in that order, more than 60 µM, 6.91 µM and more than 8.68.
With `C#CCNC1CCc2c(OCCc3ccc(Cl)cc3)cccc21` (centres undefined), the figures for the IC50 in test [1] and in test [2] were 10.2 µM and 2.51 µM, respectively. The Ratio IC50 in the test filed under Homo sapiens came out at 4.07.
Consider `C#CCNC1CCc2c(SCc3ccccc3)cccc21` (centres undefined), for which the values for the IC50 in test [1] and in test [2] were more than 60 µM and 6.24 µM, respectively. In addition, the Ratio IC50 in the test filed under Homo sapiens was more than 9.62.
The like results for `C#CCNC1CCc2c(OCCCOc3cccc(I)c3)cccc21` (centres undefined) were, in that order, more than 60 µM, 18 µM and more than 3.33.
The like results for `C#CCNC1CCc2c(OCCCOc3ccc(CC)cc3)cccc21` (centres undefined) were, in that order, 31.4 µM, 10.5 µM and 2.99.
The like results for `C#CCNC1CCc2c(OCCc3cccc(NC(=O)c4ccc(Cl)cc4)c3)cccc21` (centres undefined) were, in that order, 9.33 µM, 0.02 µM and 466.
Turning to `C#CCNC1CCc2c(OCc3cccc(Cl)c3)cccc21` (centres undefined), the IC50 turned out to be 7 µM in test [1] and 0.33 µM in test [2]. The Ratio IC50 in the test filed under Homo sapiens amounted to 21.2.
The like results for `C#CCNC1CCc2c(OCc3cccc(F)c3)cccc21` (centres undefined) were, in that order, 5.2 µM, 0.28 µM and 18.6.
The like results for `C#CCNC1CCc2c(OCc3cccc(C)c3)cccc21` (centres undefined) were, in that order, 11.2 µM, 0.55 µM and 20.4.
